Source: US9725490B2, “ERAP1-derived peptide and use thereof” (TOKUSHIMA UNIVERSITY, priority 2011, dated 2017)

How the values were obtained:
MCF-7 cells = experiment: E2-dependent cell proliferation assay (MTT/CCK-8), MCF-7; assay type: cell-based, human
Experimental: FIG. 6-1 is a diagram illustrating that ERAP1-peptide treatment suppresses ERα-dependent cell proliferation of breast cancer cell lines. (A) and (B) show the results of MTT assay by which the inhibition effect of the ERAP1-peptide in the E2-dependent cell proliferation was evaluated. MCF-7 cells were treated with the ERAP1-peptide (A, B) the ERAP1-scramble peptide (B) or the ERAP1-mutant peptide (B).
FIG. 7-1 is a diagram illustrating that ERAP1-peptide treatment suppresses ERα-dependent cell proliferation of breast cancer cell lines. […] KPL-3C cells were treated with the ERAP1-peptide, the scramble peptide or the mutant peptide. Then, immediately, the cells were stimulated with 10 nM E2 for 24 hours. […] Then, immediately, the cells were stimulated with 10 nM E2. Then, the ERAP1-peptide was added every day for […]. […] The arrow indicates addition of the ERAP1-peptide.
FIG. 7-3 is a diagram illustrating that ERAP1-peptide treatment suppresses ERα-dependent cell proliferation of breast cancer cell lines. […] MCF-7 cells were treated with 10 μM ERAP1-peptide. Then, immediately, the cells were stimulated with 10 nM E2 (white square). Then, 10 μM ERAP1-peptide was added every day for four days (black square).
FIG. 20 is a diagram illustrating the results of evaluations for the influence of the difference of the sequence on E2-dependent cell proliferation suppression effect. […] Then, immediately, the cells were stimulated with E2 for 24 hours.
MCF-7 cells were suspended in MEM (Invitrogen, Carlsbad, Calif., USA) reinforced with 10% FBS (Nichirei Biosciences, Tokyo, Japan), 1% antibiotic/antimycotic solution (Invitrogen), 0.1 mM NEAA (Tnvitrogen), 1 mM sodium pyruvate and 10 μg/ml insulin (Sigma, St. Louis, Mo., USA). Then, the cell suspension was seeded in a 48-well plate (2×10^4 cells/200 μl), a 24-well plate (1×10^5 cells/1 ml), a 6-well plate (5×10^5 cells/2 ml) or 10 cm dish (2×10^6 cells/10 ml). The cells were maintained at 37° C. in humidified atmosphere containing 5% carbon dioxide. On the next day of the seeding, the culture medium was exchanged with phenol red-free DMEM/F12 (Invitrogen) reinforced with FBS, an antibiotic/antimycotic solution, NEAA, sodium pyruvate and insulin. After 24 hours, the cells were treated with 10 nM 17β estradiol (E2, Sigma). The ERAP-1 peptide was added just before the E2 stimulation in the inhibition test.
Using Cell-Counting Kit-8 (CCK-8, Dojindo, Kumamoto, Japan), the cell proliferation assay was performed. […] Then, the absorbance at 450 nm was measured and the number of living cells in each well was calculated.
The cell proliferation assay was evaluated using Cell-Counting Kit-8 (CCK-8, Dojindo, Kumamoto, Japan). […] Then, 100 μl from each well was moved to a 96-well plate, and the absorbance at 450 nm was measured with a microplate reader.

HCC1395 cells = experiment: Proliferation of ERα-positive/ERAP1-negative HCC1395 cells; assay type: cell-based, human; details: 10 nM E2 96 hours
Experimental: FIG. 21 is a diagram illustrating that […] was translocated into the nucleus by E2 stimulation in ERAP1-negative breast cancer cell lines, HCC1395 cells. […] Then, immediately, the cells were stimulated with 1 μM E2 for 24 hours. The cells were fractionated into cytoplasm and nuclear fractions by specific gravity centrifugation. Then, each fraction was subjected to immunoblotting analysis using an anti-PHB2 antibody. Lamin and Tubulin are markers for […]. […] HCC1395 cells were treated with 5 μM ERAP1-peptide. Then, immediately, the cells were stimulated with 1 μM E2 for 24 hours. Then, the nuclear fraction was immunoprecipitated with anti-ERα antibody. Furthermore, with respect to the obtained sample, the immunoprecipitate was subjected to immunoblotting analysis with the antibodies shown in the figure. […] Then, immediately the cells were stimulated with 10 nM E2 for 96 hours.
The proliferation assay of HCC1395 cells was evaluated using Cell-Counting Kit-8 (CCK-8, Dojindo, Kumamoto, Japan). First, HCC1395 cells were seeded in 2×10^4/well in RPMI culture medium containing 10% FBS and 1% antibiotic/antimycotic solution and not containing phenol red on a 48-well plate, and stood in a CO2 incubator. […] Then, 100 μl from each well was moved to a 96-well plate, and the absorbance at 450 nm was measured with a microplate reader.

With `CSCC[C@H](NC(=O)[C@H](CCC(N)=O)NC(=O)[C@H](CCCNC(=N)N)NC(=O)[C@H](CCCNC(=N)N)NC(=O)[C@H](CCCNC(=N)N)NC(=O)[C@H](CCCNC(=N)N)NC(=O)[C@H](CCCNC(=N)N)NC(=O)[C@H](CCCNC(=N)N)NC(=O)[C@H](CCCNC(=N)N)NC(=O)[C@H](CCCNC(=N)N)NC(=O)[C@H](CCCNC(=N)N)NC(=O)[C@H](CCCNC(=N)N)NC(=O)[C@@H](N)CCCNC(=N)N)C(=O)N[C@@H](CC(C)C)C(=O)N[C@@H](CO)C(=O)N[C@@H](CC(=O)O)C(=O)N[C@@H](CC(C)C)C(=O)N[C@H](C(=O)N[C@@H](CC(C)C)C(=O)N[C@@H](CCC(N)=O)C(=O)N[C@@H](CC(C)C)C(=O)N[C@@H](CCCNC(=N)N)C(=O)N[C@@H](CCC(N)=O)C(=O)N[C@@H](CCCNC(=N)N)C(=O)O)[C@@H](C)O` [ERAP1-peptide] the E2-dependent cell proliferation (MCF-7 cells; 10 nM E2, up to 24 hours) was “dose-dependently suppressed the E2-dependent cell proliferation”, the “proliferation of the E2-dependent breast cancer cells, repeated administration” value (MCF-7 cells; 5 μM and 10 μM, every 24 hours for four days) was “completely suppressed” and the “duration of E2-dependent proliferation suppression effect” value (MCF-7 cells; 10 μM single addition) was “complete E2-dependent proliferation suppression effect was recognized up to 24 hours”. The cell proliferation (HCC1395 cells) was “not recognized”.
